Experimental data reported in patent publication US12313625B2, “Living tissue model device, vascular wall model, vascular wall model device and method of evaluating test substance” (FUJIFILM CORPORATION, priority 2017, dated 2025).

How the values were obtained:
[1] = tested on: VEC/SMC-HCM insert (HUVEC / HUASMC vascular wall model); settings: histamine 10 μM or 100 μM, incubated 120 minutes, FIG. 10
Experimental: • (1) 2 mg of FITC-dextran 70 (70 kDa, Sigma) was dissolved in 8 ml of HBSS (+) (084-08965, Wako), to prepare a 250 μg/ml FITC-dextran 70 solution. The FITC-dextran 70 solution was stored in a light-shielded condition. […] The 96-well black plate was light-shielded by being covered with an aluminum sheet. • (9) The fluorescent intensity of the FITC in each sample liquid was measured using a plate reader (ENSPIRE, PerkinElmer) with an excitation wavelength (Ex) of 485 nm and an emission wavelength (Em) of 530 nm.

[2] = tested on: cell layered body of rat vascular endothelial cells and rat smooth muscle cells on HCM; assay: Evaluation of response to physiologically active substance (thrombin) by microscopy of the cell layered body; assay type: cell-based; settings: 37° C., 30 minutes
Experimental: • (1) 0.1 mg (100 units) of thrombin (#T7009-100UN, Sigma) was dissolved in 100 μl of physiological saline to prepare a thrombin solution at a concentration of 1000 U/mL. […] The micrograph of the cell layered body is shown in FIG. 12, which is a superposed image of red fluorescence from VE-cadherin and green fluorescence from α-smooth muscle actin.

NCCc1c[nH]cn1 [histamine, Histamine]
FITC-dextran 70 permeability [1]: increase in FITC-dextran 70 permeability depending on the concentration of histamine

thrombin
cell contraction observed under a microscope ([2]; 25 U/mL or 100 U/mL thrombin, FIG. 12): cell contraction due to activation of actin stress fibers caused by the addition of thrombin was observed | concentration dependence of cell contraction ([2]; 25 U/mL vs 100 U/mL thrombin): Higher thrombin concentrations caused stronger cell contractions
